# From patent US12612412B2, “Antiviral heterocyclic compounds” (Enanta Pharmaceuticals, Inc., priority 2021, dated 2026)
# Columns and labels:
# [1] = tested on: genotype A, "Long" strain RSV; experiment: RSV-A assay (CPE protection in Hep-2 cells, ATPlite readout); format: cell-based, Human respiratory syncytial virus (HRSV); settings: human respiratory syncytial virus, RSV-A Long strain, MOI 0.1, CPE protection, read-out: Human RSV-A (“Long”) EC50
# In short: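 Protection from RSV-induced cytopathic effect measured by ATP content (ATPlite) after 5-day culture. Infection used genotype A Long virus at MOI 0.1 on 8,000 Hep-2 cells per well, with compound serially diluted 2-fold; values are EC50.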
# [2] = tested on: HMPV clinical isolate TN/1501/A1; experiment: HMPV antiviral assay Method-B (clinical isolate TN/1501/A1 in LLC-MK2 cells, ATP-Lite readout); format: cell-based, Human metapneumovirus (HMPV); settings: human metapneumovirus, LLC-MK2, 144 h, hMPV WT1501 (clinical isolate TN/1501/A1), 6 days
# In short: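 LLC-MK2 cells infected in suspension with TN/1501/A1 at MOI 0.014 in serum-free medium with 2 μg/mL TPCK-trypsin (final), incubated 6 days at 37° C. Compounds tested in duplicate, 10-point 3-fold dilutions from 10 μM. Cell health read by ATP-Lite luminescence, normalised to virus-only and cells-only controls; EC50 by four-parameter logistic fit.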
Compound,EC50 [1],EC50 [2]
COc1cc(C(=O)NC[C@](O)(c2nc(-c3ccc4c(c3)OC(F)(F)O4)c3c(c2F)[C@@](C)(C(N)=O)CO3)C2CC2)cc2cn(C(F)F)nc12 [Example 860],< 200 nM,< 500 nM
COc1cc(C(=O)NC[C@](O)(c2nc(-c3ccc4c(c3)OC(F)(F)O4)c3c(c2F)[C@@](C)(C(N)=O)CO3)C2CC2)cc2cc(Cl)c(C)nc12 [Example 861],< 200 nM,< 500 nM
COc1cc(C(=O)NC[C@](O)(c2nc(-c3cc(Cl)c(F)cc3F)c3c(c2F)[C@@](C)(C(N)=O)CO3)C2CC2)cc2cn(C3CC3)nc12 [Example 862],< 200 nM,< 500 nM
COc1cc(C(=O)NC[C@](O)(c2cc3c(c(-c4ccc(F)c(C(F)(F)F)c4)n2)OC[C@]3(C)C(N)=O)C2CC2)cc2cn(C3CC3)nc12 [Example 871],< 200 nM,< 500 nM
COc1cc(C(=O)NC[C@](O)(c2cc3c(c(-c4ccc(F)cc4Cl)n2)OC[C@]3(C)C(N)=O)C2CC2)cc2cn(C3CC3)nc12 [Example 872],< 200 nM,< 500 nM
COc1cc(C(=O)NC[C@](O)(c2cc3c(c(-c4ccc(Cl)cc4F)n2)OC[C@]3(C)C(N)=O)C2CC2)cc2cn(C3CC3)nc12 [Example 873],< 200 nM,< 500 nM
COc1cc(C(=O)NC[C@](O)(c2cc3c(c(-c4ccc(F)cc4)n2)OC[C@]3(C)C(N)=O)C(F)(F)F)cc2nn(C3CC3)cc12 [Example 874],> 200 nM,> 500 nM
COc1cc(C(=O)NC[C@](O)(c2cc3c(c(-c4ccc(F)cc4)n2)OC[C@]3(C)C(N)=O)C(F)(F)F)cc2c(=O)n(C3CC3)[nH]c12 [Example 876],> 200 nM,> 500 nM
C[C@]1(C(N)=O)COc2c1cc([C@@](O)(CNC(=O)c1cc(OCC3CC3)c3nn(C4(F)CC4)cc3c1)C(F)(F)F)nc2-c1ccc(F)cc1 [Example 877],< 200 nM,< 500 nM
C[C@]1(C(N)=O)COc2c1cc([C@@](O)(CNC(=O)c1cc(OCCF)c3nn(C4(F)CC4)cc3c1)C(F)(F)F)nc2-c1ccc(F)cc1 [Example 878],< 200 nM,> 500 nM
Cc1nc2c(Cl)cc(C(=O)NC[C@](O)(c3cc4c(c(-c5ccc(F)cc5)n3)OC[C@]4(C)C(N)=O)C(F)(F)F)cc2cc1Cl [Example 883],< 200 nM,> 500 nM
Cc1nc2c(Cl)cc(C(=O)NC[C@](O)(c3cc4c(c(-c5ccc(F)c(Cl)c5)n3)OC[C@]4(C)C(N)=O)C(F)(F)F)cc2cc1Cl [Example 884],< 200 nM,> 500 nM
Cc1nc2c(OC3CC3)cc(C(=O)NC[C@](O)(c3cc4c(c(-c5ccc(F)cc5)n3)OC[C@]4(C)C(N)=O)C(F)(F)F)cc2cc1Cl [Example 885],< 200 nM,< 500 nM
Cc1nc2c(OC3CC3)cc(C(=O)NC[C@](O)(c3cc4c(c(-c5ccc(F)c(Cl)c5)n3)OC[C@]4(C)C(N)=O)C(F)(F)F)cc2cc1Cl [Example 886],< 200 nM,< 500 nM
Cc1onc2ccc(C(=O)NC[C@](O)(c3cc4c(c(-c5ccc(F)cc5)n3)OC[C@]4(C)C(N)=O)C(F)(F)F)cc12 [Example 887],< 200 nM,> 500 nM
COc1cc(C(=O)NC[C@](O)(c2cc3c(c(-c4ccc(F)cc4)n2)OC[C@]3(C)C(N)=O)C(F)(F)F)cc2c(C)onc12 [Example 888],< 200 nM,> 500 nM
C[C@]1(C(N)=O)COc2c1cc([C@@](O)(CNC(=O)c1cc(OCC(F)F)c3nn(C4(F)CC4)cc3c1)C(F)(F)F)nc2-c1ccc(F)cc1 [Example 889],< 200 nM,> 500 nM
COc1cc(C(=O)NC[C@](O)(c2cc3c(c(-c4ccc(C5CC5)cc4)n2)OC[C@]3(C)C(N)=O)C(F)(F)F)cc2cn(C3CC3)nc12 [Example 891],< 200 nM,> 500 nM

Compound,EC50 [1],EC50 [2]
COc1cc(C(=O)NC[C@](O)(c2cc3c(c(-c4ccc5c(c4)OC(F)(F)O5)n2)OC[C@]3(C)C(N)=O)C(F)(F)F)cc2cn(C3CC3)nc12 [Example 893],< 200 nM,< 500 nM
COc1cc(C(=O)NC[C@](O)(c2cc3c(c(-c4ccc(C(F)F)cc4)n2)OC[C@]3(C)C(N)=O)C(F)(F)F)cc2cn(C3CC3)nc12 [Example 896],< 200 nM,> 500 nM
COc1cc(C(=O)NC[C@](O)(c2cc3c(c(-c4ccc(OC(F)(F)F)cc4)n2)OC[C@]3(C)C(N)=O)C(F)(F)F)cc2cn(C3CC3)nc12 [Example 898],< 200 nM,> 500 nM
COc1cc(C(=O)NCC(O)(c2cc3c(c(-c4cnc(C(F)(F)F)nc4)n2)OC[C@]3(C)C(N)=O)C(F)(F)F)cc2cn(C3CC3)nc12 (stereo partly shown) [Example 899],> 200 nM,> 500 nM
COc1cc(C(=O)NC[C@](O)(c2cc3c(c(-c4ccc(F)cc4F)n2)OC[C@]3(C)C(N)=O)C(F)(F)F)cc2cn(C3CC3)nc12 [Example 901],< 200 nM,< 500 nM
COc1cc(C(=O)NCC(O)(c2cc3c(c(-c4cnn(C)c4)n2)OC[C@]3(C)C(N)=O)C(F)(F)F)cc2cn(C3CC3)nc12 (stereo partly shown) [Example 903],< 200 nM,> 500 nM
COc1cc(C(=O)NC[C@](O)(c2cc3c(c(-c4ccc5c(c4)OCO5)n2)OC[C@]3(C)C(N)=O)C(F)(F)F)cc2cn(C3CC3)nc12 [Example 908],< 200 nM,< 500 nM
COc1cc(C(=O)NCC(O)(c2cc3c(c(-c4ccc(F)c(OC(F)F)c4)n2)OC[C@]3(C)C(N)=O)C(F)(F)F)cc2cn(C3CC3)nc12 (stereo partly shown) [Example 909],< 200 nM,> 500 nM
COc1cc(C(=O)NC[C@](O)(c2cc3c(c(-c4ccccc4F)n2)OC[C@]3(C)C(N)=O)C(F)(F)F)cc2cn(C3CC3)nc12 [Example 911],< 200 nM,< 500 nM
COc1cc(C(=O)NC[C@](O)(c2cc3c(c(-c4cccc(F)c4)n2)OC[C@]3(C)C(N)=O)C(F)(F)F)cc2cn(C3CC3)nc12 [Example 912],< 200 nM,< 500 nM
COc1cc(-c2nc([C@](O)(CNC(=O)c3cc(OC)c4nn(C5CC5)cc4c3)C(F)(F)F)cc3c2OC[C@]3(C)C(N)=O)ccc1F [Example 913],> 200 nM,> 500 nM
COc1cc(-c2nc([C@@](O)(CNC(=O)c3cc(OC)c4nn(C5CC5)cc4c3)C(F)(F)F)cc3c2OC[C@]3(C)C(N)=O)ccc1F [Example 914],< 200 nM,> 500 nM
COc1cc(C(=O)NC[C@](O)(c2cc3c(c(-c4ccc(F)c(F)c4F)n2)OC[C@]3(C)C(N)=O)C(F)(F)F)cc2cn(C3CC3)nc12 [Example 915],< 200 nM,< 500 nM
COc1cc(C(=O)NCC(O)(c2cc3c(c(-c4cc(F)c(F)c(F)c4)n2)OC[C@]3(C)C(N)=O)C(F)(F)F)cc2cn(C3CC3)nc12 (stereo partly shown) [Example 916],< 200 nM,< 500 nM
COc1cc(C(=O)NC[C@@](O)(c2cc3c(c(-c4cccc(OC(F)F)c4)n2)OC[C@]3(C)C(N)=O)C(F)(F)F)cc2cn(C3CC3)nc12 [Example 917],< 200 nM,> 500 nM
COc1cc(C(=O)NC[C@](O)(c2cc3c(c(-c4cccc(OC(F)F)c4)n2)OC[C@]3(C)C(N)=O)C(F)(F)F)cc2cn(C3CC3)nc12 [Example 918],< 200 nM,> 500 nM
COc1cc(C(=O)NC[C@@](O)(c2cc3c(c(-c4ccc(OC(F)F)c(F)c4)n2)OC[C@]3(C)C(N)=O)C(F)(F)F)cc2cn(C3CC3)nc12 [Example 919],> 200 nM,> 500 nM
